Test results reported in PMC8145986, “In Vitro Enzymatic and Kinetic Studies, and In Silico Drug-Receptor Interactions, and Drug-Like Profiling of the 5-Styrylbenzamide Derivatives as Potential Cholinesterase and β-Secretase Inhibitors with Antioxidant Properties” (Antioxidants, 2021).

Key:
[1] = DPPH radical scavenging assay; details: read-out: IC50 (SD) DPPH
Experimental: The antioxidant activities of the test compounds against ascorbic acid (Sigma Aldrich, Saint Louis, MO, USA) as a positive control were evaluated using a 2,2-diphenyl-1-picrylhydrazyl (DPPH) radical scavenging assay developed by Zhu et al., as described in our previous study. Duplicate solutions (20 μL) of the test compounds and ascorbic acid in DMSO (final concentrations: 5, 10, 25, 50, and 100 μM) were added into each designated well of a 96-well plate. A solution of DPPH (0.20 mM) (20 μL) in methanol was added to each well, and the 96-well plate was wrapped with aluminium foil and incubated in the dark for 45 min. Five absorbance readings were recorded at 512 nm using a Varioskan flash microplate spectrophotometer reader. The average values obtained from the absorbance readings were used to determine the IC50 and standard deviation values.

[2] = Metal chelation study by UV-vis spectrometry; format: physicochemical; details: room temperature
Experimental: The metal chelating ability of compounds 2a and 3b toward Cu^2+ and Zn^2+ was evaluated by ultraviolet–visible (UV–Vis) spectrometry. A solution of the test compound in methanol (30 μM, final concentration) alone or in the presence of CuCl2 or ZnCl2 (30 μM, final concentration) was stirred at RT for 30 min. The absorption spectra were recorded at room temperature on a PerkinElmer UV/Vis spectrometer (Perkin Elmer, Inc., Midrand, Johannesburg, South Africa) at wavelengths ranging from 200 to 1200 nm.
The ability of compound 2a to chelate Cu^2+ or Zn^2+ was assessed using a UV–vis spectrophotometric assay with a wavelength in the region of 200–1200 nm. The absorption spectrum of 2a (Figure 2) acquired in methanol at room temperature is characterized by four discernible absorption bands, around λ 300, 500, 690, and 1000 nm, respectively. These bands are reduced to two distinct bands of different intensities in the presence of either CuCl2 or ZnCl2. […] A bathochromic shift of the band found around 500 nm in the spectrum of 2a to around 580 nm in the presence of ZnCl2 occurred with no broadening. 2-Aminobenzamide is known to bind the Cu(II) ion through the amino-N and amido-O atoms.

BChE = target: T1, BChE (Homo sapiens, UniProt P06276); experiment: biochemical; details: mean ± SD of three independent experiments
T1 construct: purchased Cloud-Clone Corp. (via Biocom Africa (Pty) Ltd.)
Experimental: The melting point values of the test compounds were recorded on a Thermocouple digital melting point apparatus (Mettler Toledo LLC, Columbus, OH, USA). The infrared (IR) spectra were recorded using the thin-film method on a Bruker VERTEX 70 FT-IR Spectrometer (Bruker Optics, Billerica, MA, USA) equipped with an ATR (diamond attenuated total reflectance) accessory. Merck kieselgel 60 (0.063–0.200 mm) (Merck KGaA, Frankfurt, Germany) was used as a stationary phase for column chromatography. The ^1H-NMR and ^13C-NMR spectra of the prepared compounds were obtained as deuterated dimethyl sulfoxide ((CD3)2SO) solutions using Agilent 500 MHz NMR spectrometer (Agilent Technologies, Oxford, UK) operating at 500 MHz and 125 MHz for ^1H and ^13C, respectively. The chemical shifts are quoted relative to tetramethylsilane (TMS) used as an internal reference standard (δ = 0.00 ppm) or a residual protonated solvent. The high-resolution mass spectra were recorded at an ionization potential of 70 eV using Micromass Autospec-TOF (double focusing high resolution) instrument (Waters Corp., Milford, MA, USA). The synthesis and analytical data for 2-amino-5-iodobenzamide (1) have been reported in our previous study. Recombinant human AChE (BioLegend) and BChE (Cloud-Clone Corp.) were purchased via Biocom Africa (Pty) Ltd. (Centurion, Pretoria, South Africa).
AChE and BChE were used to determine cholinesterase activities spectrophotometrically using […] as substrates, respectively, following a modification of the Ellman’s method, as described in our previous study, and the reactions were performed in triplicate at 37 °C in a 96-well plate. […] A multi-channel pipette was used for the addition of reagents to the wells.
A total of 8.0 μL of the test compound and 2.0 μL of BChE (0.02 mg/mL) was added to each of the designated wells of the 96-well plate, and the mixtures were incubated at room temperature for 30 min. Tris buffer (70 μL) was added to each well containing the reaction mixture and incubation was continued for a further 10 min at this temperature, which was followed by the addition of 10 μL solution of 5,5′-dithiobis-(2-nitrobenzoic acid) (DTNB) (3 mM in Tris buffer, 50 mM, pH 7.7) and butyrylcholine iodide (5 mM in Tris buffer, 50 mM, pH 7.7) to each well to initiate the reaction. […] The IC50 and standard deviation values using the Graph Pad Prism.

Vero cells = experiment: LPS-induced ROS production in Vero cells (H2DCF-DA); format: cell-based, monkey; details: 10 μM compound, LPS 1 μg/mL, 24 h (Figure 9a)
Experimental: Mitochondrial ROS levels in Vero and A549 cell lines was measured using the 2′,7′-dichlorofluorescin diacetate (H2DCF-DA) (Sigma-Aldrich, St. Louis, MO, USA, Merck, Darmstadt, Germany), fluorescent probe. Cells (1 × 10^5) were seeded in 96 well plates and incubated overnight at 37 °C in 5% CO2. A minimum non-toxic concentration (10 μM) of compounds (2a and 3b) was added separately as treatment and further incubated for an hour, after which LPS (1 μg/mL) was added to induce the production of ROS. After 24 h of incubation, the media was aspirated, cells were rinsed with PBS, and followed by the addition of H2DCF-DA (10 μM) for 30 min in the dark. The absorbance of the fluorescence was measured using a microplate reader (VarioSkan Flash, Thermo Fisher Scientific, Finland) at 485 and 535 nm values of excitation and emission, respectively. Data was processed and analysed using ANOVA, which was followed by Duncan’s multiple comparison test.

β-secretase = target: T2, β-secretase (Homo sapiens, UniProt P56817); experiment: β-Secretase (BACE-1) inhibition assay; format: biochemical; details: mean ± SD of three independent experiments
T2 construct: purchased Thermo Fisher Scientific Corporation; host or cells: baculovirus-expressed
Experimental: The β-secretase inhibitory activities of the test compounds were assayed in triplicates in 96-well plates using a recombinant baculovirus-expressed β-secretase and a specific substrate (Rh-[…]-Quencher), according to the manufacturer’s (Thermo Fisher Scientific Corporation, Johannesburg, Gauteng, South Africa) instructions, as described in our previous study. […] To each well, 2.0 μL human recombinant β-secretase (1.0 U/mL) was added to start the reaction and the reaction mixture was incubated for 60 min at room temperature. […] The IC50 and standard deviation values of both the test compounds and reference standard were calculated using the Graph Pad Prism.

T1 sequence (P06276 29-602): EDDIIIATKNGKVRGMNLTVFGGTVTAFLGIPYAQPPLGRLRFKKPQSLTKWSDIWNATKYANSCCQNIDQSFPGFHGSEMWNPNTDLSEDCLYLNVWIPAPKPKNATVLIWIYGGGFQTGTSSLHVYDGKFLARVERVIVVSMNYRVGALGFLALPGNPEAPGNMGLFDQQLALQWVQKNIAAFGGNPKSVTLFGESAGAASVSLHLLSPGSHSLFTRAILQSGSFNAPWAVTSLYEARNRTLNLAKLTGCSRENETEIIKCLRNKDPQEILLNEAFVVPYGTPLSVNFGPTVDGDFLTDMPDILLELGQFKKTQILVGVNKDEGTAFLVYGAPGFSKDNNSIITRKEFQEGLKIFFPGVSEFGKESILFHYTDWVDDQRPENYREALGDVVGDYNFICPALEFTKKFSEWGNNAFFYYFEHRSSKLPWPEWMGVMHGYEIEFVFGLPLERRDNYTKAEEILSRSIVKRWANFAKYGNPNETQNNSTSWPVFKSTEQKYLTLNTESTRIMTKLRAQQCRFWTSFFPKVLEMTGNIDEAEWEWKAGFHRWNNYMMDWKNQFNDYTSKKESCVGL
T2 sequence (P56817 46-501): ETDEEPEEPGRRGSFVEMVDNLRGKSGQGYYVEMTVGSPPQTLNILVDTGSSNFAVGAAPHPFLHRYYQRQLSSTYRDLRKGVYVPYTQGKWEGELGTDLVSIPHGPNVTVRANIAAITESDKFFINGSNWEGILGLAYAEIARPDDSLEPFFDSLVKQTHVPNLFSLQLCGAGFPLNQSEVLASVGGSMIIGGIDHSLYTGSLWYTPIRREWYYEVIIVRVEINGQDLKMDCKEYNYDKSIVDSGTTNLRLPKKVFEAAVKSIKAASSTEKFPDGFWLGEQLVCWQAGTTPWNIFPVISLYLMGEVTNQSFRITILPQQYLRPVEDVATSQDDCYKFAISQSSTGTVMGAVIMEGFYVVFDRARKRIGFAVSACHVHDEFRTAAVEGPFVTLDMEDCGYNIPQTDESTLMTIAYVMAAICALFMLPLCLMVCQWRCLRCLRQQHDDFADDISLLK

NC(=O)c1cc(/C=C/c2ccccc2)ccc1N [Compound 2a, (E)-2-Amino-5-styrylbenzamide]
IC50 [1]: 5.8 ± 0.32 µM
chelation of Cu2+ ([2]; 30 μM compound and 30 μM CuCl2 in methanol): selective for Cu (II) ion
chelation of Zn2+ ([2]; 30 μM compound and 30 μM ZnCl2 in methanol): relatively poor chelating ability
IC50 (BChE): 4.7 ± 0.32 µM
suppression of LPS-induced ROS (Vero cells): about 60%
IC50 (β-secretase): 15.8 ± 0.26 µM
